Measurements published in BindingDB's records for doi:10.1016/j.bmcl.2008.07.045 (Korea Research Institute of Bioscience and Biotechnology, 2008).

Target: Intercellular adhesion molecule 1 (Homo sapiens, UniProt P05362)
Test: Inhibition of sICAM1/LFA1 interaction-mediated human THP1 cell adhesion after 1 hr by ELISA

Chain of Intercellular adhesion molecule 1 (P05362 whole entry): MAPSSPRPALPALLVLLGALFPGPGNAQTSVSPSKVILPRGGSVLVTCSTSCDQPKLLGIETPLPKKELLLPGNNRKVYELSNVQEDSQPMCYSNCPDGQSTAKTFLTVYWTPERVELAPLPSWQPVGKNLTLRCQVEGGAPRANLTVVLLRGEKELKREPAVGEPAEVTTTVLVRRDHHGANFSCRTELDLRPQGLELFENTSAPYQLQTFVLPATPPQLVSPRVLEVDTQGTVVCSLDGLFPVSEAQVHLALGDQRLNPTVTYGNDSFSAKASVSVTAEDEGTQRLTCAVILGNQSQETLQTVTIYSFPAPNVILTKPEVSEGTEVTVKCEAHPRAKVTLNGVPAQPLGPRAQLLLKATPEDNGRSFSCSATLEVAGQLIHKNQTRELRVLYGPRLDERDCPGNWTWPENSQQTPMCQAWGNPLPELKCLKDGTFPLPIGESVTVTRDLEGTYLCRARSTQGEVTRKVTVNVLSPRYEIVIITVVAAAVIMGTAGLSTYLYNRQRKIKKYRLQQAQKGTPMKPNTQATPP

| IC50 | SMILES |
| --- | --- |
| 32.4 µM | O=C(/C=C/C=C\CC/C=C/c1ccc2c(c1)OCO2)N1CCCCC1 |
| 62.6 µM | CCCCC/C=C/C=C/C(=O)NCC(C)C [CHEBI:69686] |
| 37.8 µM | O=C(CCCCCC/C=C/c1ccc2c(c1)OCO2)N1CCCCC1 [PIPERROLEIN B] |

Target: not listed separately
Test: Inhibition of sICAM1/LFA1 interaction-mediated human THP1 cell adhesion after 1 hr by ELISA

| SMILES | IC50 |
| --- | --- |
| O=C(/C=C/C=C/CC/C=C/c1ccc2c(c1)OCO2)N1CCCCC1 [Dehydropipernoline] | 17.6 µM |
| CC(C)CNC(=O)/C=C/C=C/CCCCCC/C=C/c1ccc2c(c1)OCO2 [Guineensine] | > 130 µM |

Continued, values first:

| IC50 | SMILES |
| --- | --- |
| 83.9 µM | CC(C)CNC(=O)/C=C/CCCCCC/C=C/c1ccc2c(c1)OCO2 [PIPERCHABAMIDE D] |
| 25.7 µM | O=C(/C=C/CCCC/C=C/c1ccc2c(c1)OCO2)N1CCCCC1 [Pipernonaline] |
| > 151 µM | CC(C)CNC(=O)/C=C/CCCC/C=C/c1ccc2c(c1)OCO2 [RETROFRACTAMIDE C] |
